This note sets out measurements from ChEMBL document CHEMBL2074556, “Possible involvement of P-glycoprotein in the biliary excretion of grepafloxacin” (Clin Exp Pharmacol Physiol, 2002).

The target in series [1] is T1, ATP-dependent translocase ABCB1 (Mus musculus, UniProt P21447). Briefly: TP_TRANSPORTER: increase in Doxorubicin intracellular accumulation (Doxorubicin: 5 uM, GPFX: 500 uM) in P388/ADR cells. The series is classed as functional, cell-based.
Series [2] addresses Multidrug resistance protein 1a (Rattus norvegicus) (UniProt Q6PSM0). Briefly: TP_TRANSPORTER: […] in biliary excretion by Doxorubicin, Cyclosporin A and Erythromycin in vivo Wistar rat. Type of series: functional, organism-based. To be noted: Bile.
Series [3] concerns the target T1, ATP-dependent translocase ABCB1. Briefly: TP_TRANSPORTER: increase in Doxorubicin intracellular accumulation (Doxorubicin: 5 uM, Norfloxacin: 500 uM) in P388/ADR cells. The series is classed as functional, cell-based.
The target is the same in series [4]. Briefly: TP_TRANSPORTER: increase in Doxorubicin intracellular accumulation (Doxorubicin: 5 uM, SPFX: 500 uM) in P388/ADR cells. The series is classed as functional, cell-based.
Series [5] shares this target. Briefly: TP_TRANSPORTER: increase in Doxorubicin intracellular accumulation (Doxorubicin: 5 uM, Tosufloxacin: 500 uM) in P388/ADR cells. The series is classed as functional, cell-based.

T1 sequence (P21447 whole entry): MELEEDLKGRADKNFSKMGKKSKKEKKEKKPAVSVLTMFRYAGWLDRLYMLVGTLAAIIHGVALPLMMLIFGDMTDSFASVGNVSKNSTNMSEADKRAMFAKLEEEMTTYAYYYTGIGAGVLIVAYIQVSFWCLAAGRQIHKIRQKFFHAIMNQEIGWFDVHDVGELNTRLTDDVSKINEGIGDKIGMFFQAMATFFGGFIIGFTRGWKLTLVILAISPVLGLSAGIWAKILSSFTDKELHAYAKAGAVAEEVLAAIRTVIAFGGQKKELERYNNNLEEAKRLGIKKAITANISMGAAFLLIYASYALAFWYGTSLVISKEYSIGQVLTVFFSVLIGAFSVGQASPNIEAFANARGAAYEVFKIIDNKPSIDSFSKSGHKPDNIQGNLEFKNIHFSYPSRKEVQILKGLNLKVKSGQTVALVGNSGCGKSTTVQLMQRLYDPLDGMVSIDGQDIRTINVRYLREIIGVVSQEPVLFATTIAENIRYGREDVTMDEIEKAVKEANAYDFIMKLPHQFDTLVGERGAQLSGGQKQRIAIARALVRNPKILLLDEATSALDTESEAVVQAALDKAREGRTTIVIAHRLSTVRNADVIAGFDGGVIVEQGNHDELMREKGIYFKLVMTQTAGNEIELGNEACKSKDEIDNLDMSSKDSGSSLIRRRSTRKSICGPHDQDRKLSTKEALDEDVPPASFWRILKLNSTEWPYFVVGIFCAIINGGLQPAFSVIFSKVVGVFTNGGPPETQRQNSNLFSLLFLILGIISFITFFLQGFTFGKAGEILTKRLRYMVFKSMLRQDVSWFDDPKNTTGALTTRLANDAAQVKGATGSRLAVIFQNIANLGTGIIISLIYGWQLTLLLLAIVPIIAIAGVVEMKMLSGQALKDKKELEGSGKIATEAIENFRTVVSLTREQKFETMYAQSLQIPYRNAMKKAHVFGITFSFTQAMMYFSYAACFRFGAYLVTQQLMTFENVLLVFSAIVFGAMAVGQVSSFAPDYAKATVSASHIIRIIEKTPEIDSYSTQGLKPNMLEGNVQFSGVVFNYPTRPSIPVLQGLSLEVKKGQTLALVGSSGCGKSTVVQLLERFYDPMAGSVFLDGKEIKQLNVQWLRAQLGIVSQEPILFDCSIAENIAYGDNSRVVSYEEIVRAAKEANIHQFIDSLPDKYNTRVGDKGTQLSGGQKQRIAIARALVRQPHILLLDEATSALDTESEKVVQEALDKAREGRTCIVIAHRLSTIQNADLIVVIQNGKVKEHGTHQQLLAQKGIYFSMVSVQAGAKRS
Chain of Multidrug resistance protein 1a (Rattus norvegicus) (Q6PSM0 as listed by the source): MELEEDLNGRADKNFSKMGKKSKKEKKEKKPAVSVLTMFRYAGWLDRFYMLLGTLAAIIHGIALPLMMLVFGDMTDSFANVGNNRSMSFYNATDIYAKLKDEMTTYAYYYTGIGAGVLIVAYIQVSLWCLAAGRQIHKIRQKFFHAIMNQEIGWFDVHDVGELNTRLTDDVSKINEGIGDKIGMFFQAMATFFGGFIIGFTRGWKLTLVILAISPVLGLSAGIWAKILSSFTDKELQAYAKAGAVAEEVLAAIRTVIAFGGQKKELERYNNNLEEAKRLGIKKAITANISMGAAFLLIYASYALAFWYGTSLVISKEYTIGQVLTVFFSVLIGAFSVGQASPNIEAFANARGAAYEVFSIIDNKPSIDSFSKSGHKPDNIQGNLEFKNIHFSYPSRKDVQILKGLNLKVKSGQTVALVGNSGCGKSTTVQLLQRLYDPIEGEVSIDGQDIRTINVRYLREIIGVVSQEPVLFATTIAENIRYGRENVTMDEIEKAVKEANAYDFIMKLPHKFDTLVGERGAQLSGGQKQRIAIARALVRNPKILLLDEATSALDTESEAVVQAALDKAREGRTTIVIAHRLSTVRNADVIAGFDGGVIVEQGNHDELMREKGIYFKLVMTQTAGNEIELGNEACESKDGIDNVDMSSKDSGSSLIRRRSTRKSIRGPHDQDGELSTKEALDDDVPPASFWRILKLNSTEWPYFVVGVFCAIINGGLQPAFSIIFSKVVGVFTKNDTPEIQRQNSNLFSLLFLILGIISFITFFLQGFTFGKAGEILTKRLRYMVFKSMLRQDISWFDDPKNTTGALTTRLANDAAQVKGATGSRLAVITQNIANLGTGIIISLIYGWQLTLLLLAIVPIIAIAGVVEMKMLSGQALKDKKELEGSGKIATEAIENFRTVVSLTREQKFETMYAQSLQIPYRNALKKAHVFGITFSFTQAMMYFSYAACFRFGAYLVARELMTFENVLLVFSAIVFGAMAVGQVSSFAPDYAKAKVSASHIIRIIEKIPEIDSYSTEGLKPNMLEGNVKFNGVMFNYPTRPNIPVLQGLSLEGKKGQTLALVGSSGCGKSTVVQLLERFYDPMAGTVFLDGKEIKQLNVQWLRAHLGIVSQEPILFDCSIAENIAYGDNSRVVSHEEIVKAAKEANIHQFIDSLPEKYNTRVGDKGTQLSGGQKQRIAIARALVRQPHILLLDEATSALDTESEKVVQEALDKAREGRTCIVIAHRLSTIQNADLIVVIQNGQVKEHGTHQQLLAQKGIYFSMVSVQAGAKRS

With `Cc1c(F)c(N2CCNC(C)C2)cc2c1c(=O)c(C(=O)O)cn2C1CC1` (stereo not given) [GREPAFLOXACIN], the figures for the Activity entry in series [1] and in series [2] were “inhibitor [(at a rough estimate) 140 % of control]” and “substrate [+]”, respectively.
Turning to `CCn1cc(C(=O)O)c(=O)c2cc(F)c(N3CCNCC3)cc21` [NORFLOXACIN], the Activity result in series [3] is “inhibitor [(at a rough estimate) 290 % of control]”.
As for `C[C@@H]1CN(c2c(F)c(N)c3c(=O)c(C(=O)O)cn(C4CC4)c3c2F)C[C@H](C)N1` [SPARFLOXACIN], the Activity result in series [4] is “inhibitor [(at a rough estimate) 140 % of control]”.
`NC1CCN(c2nc3c(cc2F)c(=O)c(C(=O)O)cn3-c2ccc(F)cc2F)C1` (stereo not given) [TOSUFLOXACIN]: the Activity entry in series [5] was “inhibitor [(at a rough estimate) 200 % of control]”.
